In BigSolDB 2.1:

CC(O)(P(=O)(O)O)P(=O)(O)O.O
solubility (mole fraction) (in acetic acid, 293.15 K): 0.00181 | solubility (mole fraction) (in acetic acid, 298.15 K): 0.0019 | solubility (mole fraction) (in acetic acid, 303.15 K): 0.00196 | solubility (mole fraction) (in acetic acid, 308.15 K): 0.002 | solubility (mole fraction) (in acetic acid, 313.15 K): 0.002 | solubility (mole fraction) (in acetic acid, 318.15 K): 0.00214 | solubility (mole fraction) (in acetic acid, 323.15 K): 0.00225 | solubility (mole fraction) (in acetic acid, 328.15 K): 0.00224 | solubility (mole fraction) (in water, 293.15 K): 0.174 | solubility (mole fraction) (in water, 298.15 K): 0.182 | solubility (mole fraction) (in water, 303.15 K): 0.19 | solubility (mole fraction) (in water, 308.15 K): 0.198 | solubility (mole fraction) (in water, 313.15 K): 0.207 | solubility (mole fraction) (in water, 318.15 K): 0.215 | solubility (mole fraction) (in water, 323.15 K): 0.225 | solubility (mole fraction) (in water, 328.15 K): 0.235
